# Assay results taken from patent US20200397691A1, “NICOTINE MOUTH SPRAY” (Fertin Pharma A/S, priority 2017, published 2020).
# Conditions: nicotine concentration increased from 100 microgram/mL to 14,000 microgram/mL
structure (smiles),measurement,value
CN1CCCC1c1cccnc1 (stereo not shown) [nicotine],Decrease of permeability of nicotine across the buccal mucosa (factor),two
